From patent US20020037898A1, “Topical micronutrient delivery system and uses thereof” (priority 2000, published 2002)
Read-outs that look alike come from different tables or passages of the source. Each block holds one molecule with its values, some of them ahead of it.

How the values were obtained:
[1] = test system: endothelial cells of the blood capillaries; experiment: Erythematous response / vasodilation at the site of topical application
Procedure: (§1) After three days, skin was removed from both the site of application and from the abdomen of each animal, and the NAD content was analyzed.

[2] = test system: endothelial cells of blood capillaries; experiment: Skin oxygen content by transcutaneous oxygen monitor after topical lotion; assay type: in vivo; conditions: lotion applied topically for thirty minutes, then removed
Description: In this experiment, a transcutaneous oxygen monitor has been used to determine oxygen content in the skin. A lotion containing the test compound was topically applied for thirty minutes. The lotion was then removed and the transcutaneous oxygen monitor was placed on the surface of the skin. […] Butyl benzoate was chosen as the co-ester.

skin of hairless mice = experiment: Skin NAD content following topical application of niacin pronutrients; assay type: in vivo, female hairless mice (HRS-J); conditions: for Effect on NAD content of the abdomen (in words): where the pronutrient was not applied; for Skin NAD content of abdomen / Skin NAD content of abdomen, %: not the site of application; for Skin NAD content of abdomen: 1% in lotion applied to back once per day for three days; for Skin NAD content of abdomen / Skin NAD content of back: hairless mice; for Skin NAD content of abdomen, % / Skin NAD content of back, %: relative to lotion only = 100; for Skin NAD content of abdomen, %: 1% in lotion applied to back; for Skin NAD content of back, % / Skin NAD content of back: site of application, 1% in lotion; for Skin NAD content of back, %: once per day for three days; for Skin NAD content of back: topical once per day for three days; for Effect on skin NAD content at site of application (in words): topical application, back of hairless mice
Procedure: In animal experiments, female hairless mice (HRS-J, 6-8 weeks old), received daily topical application of nicotinic acid esters, using 200 mg of commercially available “Vanicream” lotion, at a 1.0% (wt/wt) concentration, for three days. Control animals received Vanicream only.
Animals were euthanized, and dorsal and ventral skin samples were then frozen in liquid nitrogen, and stored at −80° C. In order to analyze NAD and protein content, tissue samples were homogenized, in 0.5M, ice cold HClO4, and then centrifuged at 3000 rpm for 15 minutes. The resulting supernatants were neutralized with ice-cold 2M KOH/0.66M KH2PO4, in order to determine NAD. The NAD was determined in accordance with Jacobson, et al., Meth. Enzymol. 280: 221-230 (1997) incorporated by reference, while a commercially available BCA method was used for protein determination.

[3] = test system: endothelial cells of the blood capillaries; conditions: in vivo
Procedure: as §1

Procedure for physchem: The lipophilicity is reported as log P values, where P refers to the octanol/water partition coefficient, described supra.
The Poct/w values for these compounds were determined in accordance with Hamisch, et al., J. Chromatog. […] In brief, this HPLC method determines capacity factor (“K′”) for each pronutrient, and also establishes a linear relationship between the logarithm of Poct/w and the logarithm of K′, for short chain pronutrients.

SMILES: COC(=O)c1cccnc1 [1 carbon]
Erythematous Response [1]: Yes

SMILES: CCCCOC(=O)c1cccnc1 [4 carbons]
Erythematous Response [1]: Yes

SMILES: CCCCCCCCOC(=O)c1cccnc1 [8 carbons, octyl nicotinate]
chromatographic logP (physchem): 4.8 | Erythematous Response [1]: Yes | Skin oxygen content (PO2) [2]: increase in skin oxygen content

SMILES: CCCCCCCCCCOC(=O)c1cccnc1 [10 carbons]
Erythematous Response [1]: Slight

SMILES: CCCCCCCCCCCCOC(=O)c1cccnc1 [12 carbons]
Erythematous Response [1]: No | Effect on NAD content of the abdomen (in words) (skin of hairless mice): some delivery to the abdomen | Skin NAD content of abdomen (skin of hairless mice): 82.6 +/− 14.8 pmol NAD/mg tissue | Skin NAD content of abdomen, % (skin of hairless mice): 137% | Skin NAD content of back, % (skin of hairless mice): 141% | Skin NAD content of back (skin of hairless mice): 129.4 +/− 15.4 pmol NAD/mg tissue | Effect on skin NAD content at site of application (in words) (skin of hairless mice): increased NAD content

SMILES: CCCCCCCCCCCCCOC(=O)c1cccnc1 [13 carbons]
Erythematous Response [1]: No

SMILES: NC(=O)c1cccnc1 [Nicotinamide, reference compound]
chromatographic logP (physchem): -0.34 | Erythematous Response [3]: No | Vasodilation at the site of topical application [3]: does not cause vasodilation | Effect on skin NAD content at site of application (in words) (skin of hairless mice): no effect

Continued, in another order:

Erythematous Response [1]: No
SMILES: CCCCCCCCCCCCCCOC(=O)c1cccnc1 [14 carbons]
Effect on NAD content of the abdomen (in words) (skin of hairless mice): no increase | Skin NAD content of abdomen (skin of hairless mice): 55.8 +/− 13.8 pmol NAD/mg tissue | Skin NAD content of abdomen, % (skin of hairless mice): 92% | Skin NAD content of back, % (skin of hairless mice): 181% | Skin NAD content of back (skin of hairless mice): 165.7 +/− 12.0 pmol NAD/mg tissue | Effect on skin NAD content at site of application (in words) (skin of hairless mice): most effective

Erythematous Response [1]: No
SMILES: CCCCCCCCCCCCCCCOC(=O)c1cccnc1 [15 carbons]

Erythematous Response [1]: No
SMILES: CCCCCCCCCCCCCCCCOC(=O)c1cccnc1 [16 carbons]
Effect on NAD content of the abdomen (in words) (skin of hairless mice): no increase | Skin NAD content of abdomen (skin of hairless mice): 52.1 +/− 10.4 pmol NAD/mg tissue | Skin NAD content of abdomen, % (skin of hairless mice): 86% | Skin NAD content of back, % (skin of hairless mice): 120% | Skin NAD content of back (skin of hairless mice): 109.5 +/− 8.3 pmol NAD/mg tissue | Effect on skin NAD content at site of application (in words) (skin of hairless mice): increased NAD content

Erythematous Response [1]: No
SMILES: CCCCCCCCCCCCCCCCCCOC(=O)c1cccnc1 [18 carbons]
Effect on skin NAD content at site of application (in words) (skin of hairless mice): less effective
